The record followed here is patent publication US20160017286A1, “IKAROS INHIBITION TO AUGMENT ADOPTIVE T CELL TRANSFER” (THE TRUSTEES OF THE UNIVERSITY OF PENNSYLVANIA, priority 2013, published 2016).

Experiment [1] concerns human CD8 T cells bearing anti-mesothelin CAR. Kind of experiment: IL2 and IFNγ production in human anti-mesothelin CAR T cells stimulated with mesothelin-coated beads. It is filed as cell-based. The conditions noted are these: lenalidomide 10 uM vs absence.
Experiment [2] concerns human CD4 and CD8 T cells. Kind of experiment: IL2 and IFNγ production (flow cytometry) in human T cells stimulated with anti-CD3/anti-CD28 beads. It is filed as cell-based. The conditions noted are these: lenalidomide 10 uM vs absence.

As to `Nc1cccc2c1CN(C1CCC(=O)NC1=O)C2=O` (stereo not drawn) [lenalidomide], in experiment [1], the “IFNγ production in human CD8 T cells bearing anti-mesothelin CAR” value is “increased both IL2 and IFNγ production”; the “IL2 production in human CD8 T cells bearing anti-mesothelin CAR” value is “increased both IL2 and IFNγ production”. Further, in experiment [1] (listed as Lenalidomide), the “IFNγ production in human CD8 T cells bearing anti-mesothelin CAR” value is “augments IL2 and IFN levels”; the “IL2 production in human CD8 T cells bearing anti-mesothelin CAR” value was “augments IL2 and IFN levels”. In experiment [2], the “IFNγ production in human CD4+ T cells” value was “increased IL2 and IFNγ production”; the “IFNγ production in human CD8+ T cells” value is “increased IL2 and IFNγ production”; the “IL2 production in human CD4+ T cells” value is “increased IL2 and IFNγ production”; the “IL2 production in human CD8+ T cells” value is “increased IL2 and IFNγ production”. Moreover, in experiment [2] (listed as Lenalidomide), the “IFNγ production in human CD4+ T cells” value is “augments IL2 and IFN levels”; the “IFNγ production in human CD8+ T cells” value was “augments IL2 and IFN levels”; the “IL2 production in human CD4+ T cells” value was “augments IL2 and IFN levels”; the “IL2 production in human CD8+ T cells” value was “augments IL2 and IFN levels”.
